Literature values, collected in patent publication US20230094837A1, “Biodegradable and Multifunctional Neural Block Devices” (The Penn State Research Foundation, priority 2020, published 2023).

Tested on: femur mineral density
Settings: rats, oral administration

## OC[C@@H](O)[C@H](O)[C@@H](O)CO [xylitol]
  effect on femur mineral density: increased femur mineral density
